Reference: US8759386B2, “Pyrazole compounds as CRTH2 antagonists” (Boehringer Ingelheim International GmbH, priority 2011, dated 2014)
pKi: −log10 of the molar value.

Molecular target: human CRTH2 receptor (Homo sapiens (Human), UniProt Q9Y5Y4)
Test: CRTH2 receptor radioligand binding assay (SPA, [3H]-PGD2, CHO-K1-hCRTH2 cell membranes)
Settings: displacement of [3H]-PGD2 from CHO-K1-hCRTH2 membranes
Experimental: Preparation of Human CRTH2 Receptor Membranes and Radioligand Binding Assay
The binding of CRTH2 antagonists is determined using membranes prepared from Chinese hamster ovary cells (CHO-K1 cells) transfected with the human CRTH2 receptor (CHO-K1-hCRTH2 cells, Perkin Elmer, Cat No ES-561-C). To produce cell membranes the CHO-K1-hCRTH2 cells are cultured in suspension in CHO SFMII medium supplemented with 400 μg/mL G418. The cells are harvested by centrifugation at 300 g for 10 min at room temperature. The cell pellet is resuspended in Phosphate Buffer Saline (PBS) including a protease inhibitor mix (Complete, Roche) and adjusted to a concentration of 10E7 cells/mL. The CHO-K1-hCRTH2 cells are disrupted by nitrogen […] to obtain the membrane preparation. Cell debris is removed by centrifugation (500 g at 4° C., 30 min) and the supernatant is transferred into fresh tubes followed by a second centrifugation at 40000 g for 1 hour at 4° C. to sediment the membranes. The membranes are suspended in SPA incubation buffer (50 mM Tris HCl, 10 mM MgCl2, 150 mM NaCl, 1 mM EDTA, pH 7.4) without bovine serum albumin, homogenized by passing through a single use needle (Terumo, 23G×1″), and stored in aliquots at −80° C.
The CRTH2 receptor binding assay is performed in a scintillation proximity assay (SPA) format with the radioligand [^3H]-PGD2 (Perkin Elmer, NET616000MC). CHO-K1-hCRTH2 cell membranes are again homogenized by passing through a single use needle (Terumo, 23G×1″) and diluted in SPA incubation buffer in suitable concentrations (0.5-10 μg protein/well). The SPA assay is set up in 96 well microtiter plates (Perkin Elmer, Cat No. 6005040) in SPA incubation buffer with a final volume of 200 μL per well and final concentration of 50 mM Tris-HCl, 10 mM MgCl2, 150 mM NaCl, 1 mM EDTA pH 7.4, 0.1% bovine serum albumin). The SPA assay mixture contains 60 μl of the membrane suspension, 80 μL of Wheat Germ Agglutinin coated PVT beads (GE Healthcare, RPNQ-0001, 0.3 mg/well), 40 μL of [^3H]-PGD2 diluted in SPA buffer to a final concentration of 1 nM (50 000 dpm) and 20 μL of the test compound (dissolved in dimethylsulfoxide). The SPA assay mixture is incubated for 3 h at room temperature. Bound radioactivity is determined with a scintillation counter (Micro Beta Trilux, Wallac). The binding of [^3H]-PGD2 to CHO-K1-hCRTH2 cell membranes is determined in the absence (total binding, Bo) and presence (non-specific binding, NSB) of unlabelled PGD2 (1 μM, Cayman Chemical, Cat No 12010) or a reference CRTH2 antagonist (10 μM CAY10471, Cayman Chemical, Cat No 10006735). Determination of the affinity of a test compound is calculated by subtraction of the non-specific binding (NSB) from the total binding (Bo) or the binding in the presence of the test compound (B) at a given compound concentration. The NSB value is set to 100% inhibition. The Bo-NSB value is set to 0% inhibition.
% inhibition values were obtained at a defined compound concentration, e.g. at 1 μM, % inhibition of the test compound was calculated by the formula 100−((B−NSB)*100/(Bo−NSB)). % inhibition values above 100% are founded by assay variance.

[1] = Table 1, compounds of formula Ia″
[2] = Table 2, compounds of formula Ib″

Sequence of human CRTH2 receptor (Q9Y5Y4 whole entry): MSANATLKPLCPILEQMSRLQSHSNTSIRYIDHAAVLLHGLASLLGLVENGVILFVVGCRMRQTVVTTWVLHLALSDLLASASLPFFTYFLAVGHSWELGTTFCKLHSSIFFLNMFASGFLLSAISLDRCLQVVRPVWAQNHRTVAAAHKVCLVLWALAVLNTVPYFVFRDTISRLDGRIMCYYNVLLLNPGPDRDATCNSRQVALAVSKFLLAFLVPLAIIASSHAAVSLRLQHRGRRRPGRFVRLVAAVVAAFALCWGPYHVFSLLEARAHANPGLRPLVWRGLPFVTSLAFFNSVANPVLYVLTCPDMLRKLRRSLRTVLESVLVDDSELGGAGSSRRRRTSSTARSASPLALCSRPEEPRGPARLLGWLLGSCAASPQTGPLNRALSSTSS

pKi [1]	pKi [2]	Structure (SMILES)
9.70		CCn1c(C(=O)Nc2ccc(Cn3nc(C)c(CC(=O)O)c3C)c(F)c2)cc2ccccc21 [Compound 31]
9.52		CCc1nn(Cc2ccc(NC(=O)c3cc4cc(F)ccc4[nH]3)cc2)c(CC)c1CC(=O)O [Compound 23]
9.52		Cc1nn(Cc2ccc(NC(=O)c3oc4ccc(Cl)cc4c3C)cc2F)c(C)c1CC(=O)O [Compound 44]
8.92		COc1cccc2cc(C(=O)Nc3ccc(Cn4nc(C)c(CC(=O)O)c4C)cc3)oc12 [Compound 9]
9.70		Cc1nn(Cc2ccc(NC(=O)c3cc4cc(F)ccc4[nH]3)cc2)c(C)c1CC(=O)O [Compound 12]
9.70		Cc1nn(Cc2ccc(NC(=O)c3cc4ccc(Cl)cc4o3)cc2)c(C)c1CC(=O)O [Compound 36]
9.15		CCCc1c(C(=O)Nc2ccc(Cn3nc(C)c(CC(=O)O)c3C)c(F)c2)oc2ccc(F)cc12 [Compound 52]
9.52		Cc1nn(Cc2ccc(NC(=O)c3cc4ccccc4s3)cc2)c(C)c1CC(=O)O [Compound 15]
10.00		COc1ccc2oc(C(=O)Nc3ccc(Cn4nc(C)c(CC(=O)O)c4C)c(F)c3)c(C)c2c1 [Compound 49]
10.00		CCCn1c(C(=O)Nc2ccc(Cn3nc(C)c(CC(=O)O)c3C)c(F)c2)cc2ccc(F)cc21 [Compound 42]
9.00		Cc1nn(Cc2ccc(NC(=O)c3cc4ccccc4n3C)cc2F)c(C)c1CC(=O)O [Compound 30]
9.70		CCc1nn(Cc2ccc(NC(=O)c3cc4cc(Cl)ccc4o3)cc2)c(CC)c1CC(=O)O [Compound 19]
	8.06	Cc1nn(Cc2ccc(NC(=O)c3coc4ccccc34)cc2)c(C)c1CC(=O)O [Compound 57]
10.00		CCCCn1c(C(=O)Nc2ccc(Cn3nc(C)c(CC(=O)O)c3C)c(F)c2)cc2cc(F)ccc21 [Compound 55]
8.64		COCc1c(C(=O)Nc2ccc(Cn3nc(C)c(CC(=O)O)c3C)c(F)c2)oc2ccccc12 [Compound 43]
9.70		Cc1nn(Cc2ccc(NC(=O)c3cc4ccccc4[nH]3)cc2)c(C)c1CC(=O)O [Compound 10]
9.70		Cc1nn(Cc2ccc(NC(=O)c3cc4ccc(F)cc4[nH]3)cc2)c(C)c1CC(=O)O [Compound 11]
9.40		CCn1c(C(=O)Nc2ccc(Cn3nc(C)c(CC(=O)O)c3C)c(F)c2)cc2c(F)cccc21 [Compound 40]
9.05		CCc1c(C(=O)Nc2ccc(Cn3nc(C)c(CC(=O)O)c3C)c(F)c2)oc2ccc(F)cc12 [Compound 47]
9.70		CCCn1c(C(=O)Nc2ccc(Cn3nc(C)c(CC(=O)O)c3C)c(F)c2)cc2cc(F)ccc21 [Compound 54]
9.30		Cc1nn(Cc2ccc(NC(=O)c3cc4ccccc4[nH]3)cc2Cl)c(C)c1CC(=O)O [Compound 2]
9.52		CCc1nn(Cc2ccc(NC(=O)c3cc4ccccc4n3C)cc2)c(CC)c1CC(=O)O [Compound 21]
9.40		CCn1c(C(=O)Nc2ccc(Cn3nc(C)c(CC(=O)O)c3C)cc2)cc2ccccc21 [Compound 17]
8.00		CCc1nn(Cc2ccc(NC(=O)c3c(C)c4ccccc4n3C)cc2)c(CC)c1CC(=O)O [Compound 24]
10.00		CCCn1c(C(=O)Nc2ccc(Cn3nc(C)c(CC(=O)O)c3C)cc2)cc2ccc(F)cc21 [Compound 28]

pKi [1]	pKi [2]	Structure (SMILES)
9.10		Cc1nn(Cc2ccc(NC(=O)c3cc4ccccc4n3C)cc2)c(C)c1CC(=O)O [Compound 16]
8.66		Cc1nn(Cc2ccc(NC(=O)c3oc4c(Cl)cccc4c3C)cc2)c(C)c1CC(=O)O [Compound 33, (1-(4-[(7-Chloro-3-methylbenzofuran-2-carbonyl)amino]benzyl)-3,5-dimethyl-1H-pyrazol-4-yl)acetic acid]
> 10.00		Cc1nn(Cc2ccc(NC(=O)c3cc4ccccc4n3Cc3ccccc3)cc2)c(C)c1CC(=O)O [Compound 18]
10.00		COc1ccc2[nH]c(C(=O)Nc3ccc(Cn4nc(C)c(CC(=O)O)c4C)cc3)c(C)c2c1 [Compound 14]
8.89		Cc1nn(Cc2ccc(NC(=O)c3oc4c(F)cccc4c3C)cc2)c(C)c1CC(=O)O [Compound 7]
9.52		Cc1nn(Cc2ccc(NC(=O)c3cc4cc(Cl)ccc4o3)cc2)c(C)c1CC(=O)O [Compound 8]
9.10		Cc1nn(Cc2ccc(NC(=O)c3cc4ccccc4o3)cc2Cl)c(C)c1CC(=O)O [Compound 5]
8.66		Cc1nn(Cc2ccc(NC(=O)c3oc4c(Cl)cccc4c3C)cc2F)c(C)c1CC(=O)O [Compound 37]
9.40		Cc1nn(Cc2ccc(NC(=O)c3cc4ccc(Cl)cc4o3)cc2F)c(C)c1CC(=O)O [Compound 39]
9.70		CCCCn1c(C(=O)Nc2ccc(Cn3nc(C)c(CC(=O)O)c3C)c(F)c2)cc2ccccc21 [Compound 53]
9.52		CCc1c(C(=O)Nc2ccc(Cn3nc(C)c(CC(=O)O)c3C)cc2)oc2c(F)cccc12 [Compound 34]
10.00		CCn1c(C(=O)Nc2ccc(Cn3nc(C)c(CC(=O)O)c3C)cc2)cc2ccc(F)cc21 [Compound 29]
9.52		CCc1c(C(=O)Nc2ccc(Cn3nc(C)c(CC(=O)O)c3C)cc2)oc2c(F)cc(F)cc12 [Compound 35]
8.35		Cc1nn(Cc2ccc(NC(=O)c3sc4ccc(F)cc4c3C)cc2F)c(C)c1CC(=O)O [Compound 46]
9.70		CCc1nn(Cc2ccc(NC(=O)c3cc4ccc(F)cc4[nH]3)cc2)c(CC)c1CC(=O)O [Compound 25]
10.00		CCn1c(C(=O)Nc2ccc(Cn3nc(C)c(CC(=O)O)c3C)c(F)c2)cc2ccc(F)cc21 [Compound 41]
9.40		Cc1nn(Cc2ccc(NC(=O)c3oc4c(F)cccc4c3C)cc2F)c(C)c1CC(=O)O [Compound 50]
9.70		CCc1nn(Cc2ccc(NC(=O)c3cc4ccccc4n3CC)cc2)c(CC)c1CC(=O)O [Compound 22]
	7.43	Cc1nn(Cc2ccc(NC(=O)c3c[nH]c4ccccc34)cc2)c(C)c1CC(=O)O [Compound 58]
9.40		Cc1nn(Cc2ccc(NC(=O)c3cc4cc(F)ccc4n3C)cc2F)c(C)c1CC(=O)O [Compound 51]
7.19		Cc1nn(Cc2ccc(NC(=O)c3c(C)c4ccccc4n3C)cc2)c(C)c1CC(=O)O [Compound 13]
	8.42	Cc1nn(Cc2ccc(NC(=O)c3csc4ccccc34)cc2)c(C)c1CC(=O)O [Compound 59]
9.22		COc1ccc2oc(C(=O)Nc3ccc(Cn4nc(C)c(CC(=O)O)c4C)cc3)cc2c1 [Compound 6]
9.70		CCCn1c(C(=O)Nc2ccc(Cn3nc(C)c(CC(=O)O)c3C)c(F)c2)cc2ccccc21 [Compound 56]

Structure (SMILES)	pKi [1]	pKi [2]
Cc1nn(Cc2ccc(NC(=O)c3cc4ccccc4n3Cc3ccccc3)cc2F)c(C)c1CC(=O)O [Compound 3]	9.70	
CCc1nn(Cc2ccc(NC(=O)c3cc4ccccc4[nH]3)cc2)c(CC)c1CC(=O)O [Compound 20]	9.52	
